The test system of one assay is NK cell. The assay is described as follows: NK cell activity (Yack-1 target cells). In kind it is in vivo, ICR mice. The note with it: 0.02 g/kg. On the procedure:
The experiment was same to 5.1. 24 hours after the last administration, the spleen cell samples were made into the 2×10^8/ml cell suspension with 5% FCS-RPIM1640. The quantity of CD4, CD8, NK cells and the rate CD4/CD8 were measured on the usural method.
The preparation of the EC cell: The spleen cells were sampled in the asepsis condition. Then the samples were washed by the Hank's liquor for 2 times and nonserum RPMI1640 liquor for 1 time. Then the clear samples were adjusted to the 2×10^8/ml cell suspension with 5% FCS-RPMI liquor. This cell suspension was used as the EC.
The preparation of the TC cell: The Yack-1 cells, which were sensitive to the mouse NK cell and on the logarithmic growth phase, were adjusted to the 4×10^4/ml cell suspension. It was the TC.
Measurement: EC and TC, 100 μl each were added in the 96-hole flat bottom cell culturing batten. Each sample was cultured with 3 copies and set 2 control samples: EC and TC. […] The samples were cultured in 5% CO2 at 37° C. for 24 hours. 6 hours before the end of the culturing, the samples were centrifuged and sucked out 110 μl supernate each hole. And then the holes were added in the MTT 10 μl. After put at 37° C. for 3 hours, the mixed samples were measured the OD value at the wavelength of 570 nm and 630 nm. The OD of each hole=OD570 nm-OD630 nm.

In a further assay the test system is hemolysin antibody. The assay is described as follows: Hemolysin antibody caused by chick RBC, NIH mouse. In kind it is in vivo. The note with it: 0.02 g/kg, 0˜7. On the procedure:
190 mice, 18-22 g weight, half male and half female, were divided into 19 groups. Each mouse was immunized with 5% CRBC solution 0.2 ml. The Fengshiping solutions were drenched at the different times. 7 days after the immunization, all the mice were sampled the blood from the eyes. Then the blood samples were diluted and measured the level of the hemolysin antibody.

In the next assay the test system is IL-2. In words: IL-2 level of cultured cells from dosed mice (CTLL cells). Type of assay: in vivo, ICR mice. The settings on record: 0.02 g/kg, 10 days. On the procedure:
60 ICR mice, 1822 g, half male and half female, were divided into 6 groups at random. Each group was drenched of the correspondent medicines including the different dosages of Fengshiping and the other medicines. The medicines were administrated once a day for 10 days. 24 hours after the last administration, the mice were sampled the macrophage and spleen cells from the abdominal cavity in the aseptic condition. The samples were washed with Hank's liquor for 2 times and non-serum RPIM 1640 liquor for 1 time. Then the washed samples were diluted to the suspension with the 5% FCS-RPMI 1640 at the concentration of 2×10^8/ml. Then the suspensions were added with 10 ng/ml LPS or the 10 ng/ml ConA and cultured in the 5% CO2 condition for 48 hours at 37° C. Then the cultured suspension were measured the TNF α and IL-2 levels on the usual methods.
The CTLL cells which was on the logarithmic growth phase and whose growth depends on the IL-2, were adjusted to the suspension at the concentration of 1×10^5/ml with the 5% FCS-RPMI 1640. Then the 96 hole cell culturing batten were added with the CTLL cell suspension on the quantity of 100 μl/hole. The supernates were added on the quantity of 100 μl/hole and each sample was added to 3 holes. […] The samples were cultured for 3 hours at 37° C., and then measured the OD at the wavelength 570 nm and 630 nm. […]

Another assay deals with IL-1. In words: IL-1 of abdominal macrophages from dosed mice. In kind it is in vivo, NIH mice. The settings on record: 0.02 g/kg, 10 days. On the procedure:
70 NIH mice, 18-22 g weight, half male and half female, were divided into 7 groups at random. All the groups were drenched with the correspondent medicines (fengshiping and the other medicines). The medicines were drenched once a day for 10 days. 24 hours after the last administration, all the mice were killed and sampled the macrophage and spleen cells from the abdominal carvity. The IL-1 and IL-6 in the samples were measured.
The macrophages in the abdominal carvity were sampled in the asepsis condition. Then the samples were washed by the Hank's liquor for 2 times and nonserum RPMI1640 liquor for 1 time. Then the clear samples were adjusted to the 4×10^6/ml cell suspension with 5% FCS-RPMI liquor. 1 ml of the suspension was added to the test tube and cultured at 37° C. for 1 hour. The unadherent cells were abandoned. Then the cultured liquor was added with 5% FCS-RPMI 1640 and LPS (10 ng/ml) to culture. The cells cultured in 5% CO2 at 37° C. for 72 hours. During the course, the cultured cells were freezed and thawed for several times. The final product was saved at 4° C. The C57 mice were sampled the thymus in the asepsis condition. […]
100 μl supernate separated from the frost thawing liquor and 100 μl cell suspension of thymus were added into the 96-hole flat bottom cell-culture batten. […] The cultured cells were collected with multihead cell-harvesting apparatus and measured the cpm value. […]

`O=P1(N(CCCl)CCCl)NCCCO1` (centres unmarked) [cyclophosphane]: in the assay with NK cell, the NK is 23.10 ± 3.66 ^. In the assay with hemolysin antibody, this compound returned a Hemolysin value of 35.0 ± 12.0 and an Inhibiting percent of 79.3%. In the assay with IL-2, this compound yielded an IL-2 of 10.10 ± 3.00 IU/ml. The compound further gave an IL-1 in the assay on IL-1 of 44.5 ± 7.7 ng/mL.
